Series [1] in a line: Compound cytotoxicity, XTT-based colorimetric assay. The format is cell-based. Particulars: human; uninfected MT2 cells, day 4, XTT; read-out: CC50. An outline of the steps:
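Follows the antiviral assay procedure, but with uninfected MT2 cells. On day 4, cell viability is measured by XTT-based colorimetry, giving CC50 values.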
For orientation: Tetrazolium assays rely on reduction of a dye to a coloured formazan, in cell work by metabolically active cells.

Series [2] deals with recombinant NL4-3 virus (nef section replaced with Renilla luciferase gene) in MT-2 cells. The series is described as follows: HIV cell culture assay (antiviral activity, luciferase readout). The format is cell-based. Particulars: Renilla, NL43, MT-2 cells infected for 4-5 days with recombinant NL4-3 Renilla luciferase virus. The method in brief: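 EC50 was derived by median-effect fitting of Renilla luciferase signal from MT-2 cells. These cells were infected for 4–5 days with NL4-3 reporter virus (nef partly replaced by luciferase; made in 293T cells) in the presence of serially diluted compound. Activity was quantified with a live-cell luciferase substrate.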

For the compound `COCCCn1nc(NS(C)(=O)=O)c2c(Cl)ccc(-n3c([C@H](Cc4cc(F)cc(F)c4)NC(=O)Cn4nc(C(F)F)c5c4C(F)(F)[C@@H]4C[C@H]54)nc4nc(C5CCC(F)(F)CC5)cc(NCCN5CCCC5)c4c3=O)c21` (atropisomer, axis not shown; (P)) [Example 429, N-[(1S)-1-[(3P)-3-[4-chloro-3-methanesulfonamido-1-(3-methoxypropyl)-1H-indazol-7-yl]-7-(4,4-difluorocyclohexyl)-4-oxo-5-{[2-(pyrrolidin-1-yl)ethyl]amino}-3H,4H-pyrido[2,3-d]pyrimidin-2-yl]-2-(3,5-difluorophenyl)ethyl]-2-[(2S,4R)-9-(difluoromethyl)-5,5-difluoro-7,8-diazatricyclo[4.3.0.0^2,^4]nona-1(6),8-dien-7-yl]acetamide], the CC50 (as a rule, the concentration that lowers cell viability or growth by half) at 4 days in series [1] was above 20 nM. For the same compound, the EC50 – broadly, the concentration at which the effect is half-maximal – in series [2] was determined as 0.019 nM.
The matching figures for `COCCCn1nc(NS(C)(=O)=O)c2c(Cl)ccc(-n3c([C@H](Cc4cc(F)cc(F)c4)NC(=O)Cn4nc(C(F)F)c5c4C(F)(F)[C@@H]4C[C@H]54)nc4nc(C5CCC(F)(F)CC5)cc(NCCN5CCOCC5)c4c3=O)c21` (atropisomer, axis not shown; (P)) [Example 430, N-[(1S)-1-[(3P)-3-[4-chloro-3-methanesulfonamido-1-(3-methoxypropyl)-1H-indazol-7-yl]-7-(4,4-difluorocyclohexyl)-5-{[2-(morpholin-4-yl)ethyl]amino}-4-oxo-3H,4H-pyrido[2,3-d]pyrimidin-2-yl]-2-(3,5-difluorophenyl)ethyl]-2-[(2S,4R)-9-(difluoromethyl)-5,5-difluoro-7,8-diazatricyclo[4.3.0.0^2,^4]nona-1(6),8-dien-7-yl]acetamide]: above 20 nM and 0.011 nM.
Consider `COCCCn1nc(NS(C)(=O)=O)c2c(Cl)ccc(-n3c([C@H](Cc4cc(F)cc(F)c4)NC(=O)Cn4nc(C(F)F)c5c4C(F)(F)[C@@H]4C[C@H]54)nc4nc(C5CCC(F)(F)CC5)cc(NCC5CCOCC5)c4c3=O)c21` (atropisomer, axis not shown; (P)) [Example 431, N-[(1S)-1-[(3P)-3-[4-chloro-3-methanesulfonamido-1-(3-methoxypropyl)-1H-indazol-7-yl]-7-(4,4-difluorocyclohexyl)-5-{[(oxan-4-yl)methyl]amino}-4-oxo-3H,4H-pyrido[2,3-d]pyrimidin-2-yl]-2-(3,5-difluorophenyl)ethyl]-2-[(2S,4R)-9-(difluoromethyl)-5,5-difluoro-7,8-diazatricyclo[4.3.0.0^2,^4]nona-1(6),8-dien-7-yl]acetamide], for which the CC50 at 4 days in series [1] is above 20 nM. For the same compound, in series [2], the 50% effective concentration (EC50) worked out at 0.01 nM.
For the compound `COCCCn1nc(NS(C)(=O)=O)c2c(Cl)ccc(-n3c([C@H](Cc4cc(F)cc(F)c4)NC(=O)Cn4nc(C(F)F)c5c4C(F)(F)[C@@H]4C[C@H]54)nc4nc(C5CCC(F)(F)CC5)cc(NCCNC(C)=O)c4c3=O)c21` (atropisomer, axis not shown; (P)) [Example 432, N-[(1S)-1-[(3P)-3-[4-chloro-3-methanesulfonamido-1-(3-methoxypropyl)-1H-indazol-7-yl]-7-(4,4-difluorocyclohexyl)-5-[(2-acetamidoethyl)amino]-4-oxo-3H,4H-pyrido[2,3-d]pyrimidin-2-yl]-2-(3,5-difluorophenyl)ethyl]-2-[(2S,4R)-9-(difluoromethyl)-5,5-difluoro-7,8-diazatricyclo[4.3.0.0^2,^4]nona-1(6),8-dien-7-yl]acetamide], the CC50 at 4 days in series [1] is above 20 nM. The EC50 in series [2] came to 0.182 nM.
For `COCCCn1nc(NS(C)(=O)=O)c2c(Cl)ccc(-n3c([C@H](Cc4cc(F)cc(F)c4)NC(=O)Cn4nc(C(F)F)c5c4C(F)(F)[C@@H]4C[C@H]54)nc4nc(C5CCC(F)(F)CC5)cc(NCCC#N)c4c3=O)c21` (atropisomer, axis not shown; (P)) [Example 433, N-[(1S)-1-[(3P)-3-[4-chloro-3-methanesulfonamido-1-(3-methoxypropyl)-1H-indazol-7-yl]-5-[(2-cyanoethyl)amino]-7-(4,4-difluorocyclohexyl)-4-oxo-3H,4H-pyrido[2,3-d]pyrimidin-2-yl]-2-(3,5-difluorophenyl)ethyl]-2-[(2S,4R)-9-(difluoromethyl)-5,5-difluoro-7,8-diazatricyclo[4.3.0.0^2,^4]nona-1(6),8-dien-7-yl]acetamide] the same measures were above 20 nM and 0.037 nM.
The matching figures for `CC(C)[C@H]1CN(CCn2nc(NS(C)(=O)=O)c3c(Cl)ccc(-n4c([C@H](Cc5cc(F)cc(F)c5)NC(=O)Cn5nc(C6CC6)c6c5C[C@@H]5C[C@H]65)nc5nc(C6CCC(F)(F)CC6)ccc5c4=O)c32)CCO1` (atropisomer, axis not shown; (P)) [Example 434, N-[(1S)-1-[(3P)-3-(4-chloro-3-methanesulfonamido-1-{2-[(2S)-2-(propan-2-yl)morpholin-4-yl]ethyl}-1H-indazol-7-yl)-7-(4,4-difluorocyclohexyl)-4-oxo-3H,4H-pyrido[2,3-d]pyrimidin-2-yl]-2-(3,5-difluorophenyl)ethyl]-2-[(2S,4S)-9-cyclopropyl-7,8-diazatricyclo[4.3.0.0^2,^4]nona-1(6),8-dien-7-yl]acetamide]: above 20 nM and 0.01 nM.
For the compound `CC(C)[C@@H]1CN(CCn2nc(NS(C)(=O)=O)c3c(Cl)ccc(-n4c([C@H](Cc5cc(F)cc(F)c5)NC(=O)Cn5nc(C6CC6)c6c5C[C@@H]5C[C@H]65)nc5nc(C6CCC(F)(F)CC6)ccc5c4=O)c32)CCO1` (atropisomer, axis not shown; (P)) [Example 435, N-[(1S)-1-[(3P)-3-(4-chloro-3-methanesulfonamido-1-{2-[(2R)-2-(propan-2-yl)morpholin-4-yl]ethyl}-1H-indazol-7-yl)-7-(4,4-difluorocyclohexyl)-4-oxo-3H,4H-pyrido[2,3-d]pyrimidin-2-yl]-2-(3,5-difluorophenyl)ethyl]-2-[(2S,4S)-9-cyclopropyl-7,8-diazatricyclo[4.3.0.0^2,^4]nona-1(6),8-dien-7-yl]acetamide], the CC50 at 4 days in series [1] is above 20 nM. The EC50 in series [2] was determined as 0.009 nM.
In the case of `Cc1cc(C2CCC(F)(F)CC2)nc2nc([C@H](Cc3cc(F)cc(F)c3)NC(=O)Cn3nc(C4CC4)c4c3C[C@@H]3C[C@H]43)n(-c3ccc(Cl)c4c(NS(C)(=O)=O)nn(CCN5C[C@@H](F)C[C@H](F)C5)c34)c(=O)c12` (atropisomer, axis not shown; (P)) [Example 444, N-[(1S)-1-[(3P)-3-(4-chloro-1-{2-[(3S,5S)-3,5-difluoropiperidin-1-yl]ethyl}-3-methanesulfonamido-1H-indazol-7-yl)-7-(4,4-difluorocyclohexyl)-5-methyl-4-oxo-3H,4H-pyrido[2,3-d]pyrimidin-2-yl]-2-(3,5-difluorophenyl)ethyl]-2-[(2S,4S)-9-cyclopropyl-7,8-diazatricyclo[4.3.0.0^2,^4]nona-1(6),8-dien-7-yl]acetamide], the CC50 at 4 days in series [1] is above 20 nM. Also, the EC50 in series [2] amounted to 0.009 nM.
On to `Cc1cc(C2CCC(F)(F)CC2)nc2nc([C@H](Cc3cc(F)cc(F)c3)NC(=O)Cn3nc(C4CC4)c4c3C[C@@H]3C[C@H]43)n(-c3ccc(Cl)c4c(NS(C)(=O)=O)nn(CCN5CC6(CCC6)OC6(CCC6)C5)c34)c(=O)c12` (atropisomer, axis not shown; (P)) [Example 445, N-[(1S)-1-[(3P)-3-[4-chloro-3-methanesulfonamido-1-(2-{5-oxa-11-azadispiro[3.1.3^6.3^4]dodecan-11-yl}ethyl)-1H-indazol-7-yl]-7-(4,4-difluorocyclohexyl)-5-methyl-4-oxo-3H,4H-pyrido[2,3-d]pyrimidin-2-yl]-2-(3,5-difluorophenyl)ethyl]-2-[(2S,4S)-9-cyclopropyl-7,8-diazatricyclo[4.3.0.0^2,^4]nona-1(6),8-dien-7-yl]acetamide], for which, in series [1], the half-maximal cytotoxic concentration (CC50) at 4 days was above 20 nM. For the same compound, the EC50 in series [2] was found to be 0.015 nM.
For `Cc1cc(C2CCC(F)(F)CC2)nc2nc([C@H](Cc3cc(F)cc(F)c3)NC(=O)Cn3nc(C(F)F)c4c3C(F)(F)[C@@H]3C[C@H]43)n(-c3ccc(Cl)c4c(NS(C)(=O)=O)nn(CCN5C[C@@H](F)C[C@H](F)C5)c34)c(=O)c12` (atropisomer, axis not shown; (P)) [Example 446, N-[(1S)-1-[(3P)-3-(4-chloro-1-{2-[(3S,5S)-3,5-difluoropiperidin-1-yl]ethyl}-3-methanesulfonamido-1H-indazol-7-yl)-7-(4,4-difluorocyclohexyl)-5-methyl-4-oxo-3H,4H-pyrido[2,3-d]pyrimidin-2-yl]-2-(3,5-difluorophenyl)ethyl]-2-[(2S,4R)-9-(difluoromethyl)-5,5-difluoro-7,8-diazatricyclo[4.3.0.0^2,^4]nona-1(6),8-dien-7-yl]acetamide], the half-maximal cytotoxic concentration (CC50) at 4 days in series [1] was above 20 nM. Also, the EC50 in series [2] came out at 0.009 nM.
On to `COCCCn1nc(NS(C)(=O)=O)c2c(Cl)ccc(-n3c([C@H](Cc4cc(F)cc(F)c4)NC(=O)Cn4nc(C(F)F)c5c4C(F)(F)[C@@H]4C[C@H]54)nc4nc(C5CCC(F)(F)CC5)cc(CN5C[C@@H](C)O[C@@H](C)C5)c4c3=O)c21` (atropisomer, axis not shown; (P)) [Example 448, N-[(1S)-1-[(3P)-3-[4-chloro-3-methanesulfonamido-1-(3-methoxypropyl)-1H-indazol-7-yl]-7-(4,4-difluorocyclohexyl)-5-{[(2R,6S)-2,6-dimethylmorpholin-4-yl]methyl}-4-oxo-3H,4H-pyrido[2,3-d]pyrimidin-2-yl]-2-(3,5-difluorophenyl)ethyl]-2-[(2S,4R)-9-(difluoromethyl)-5,5-difluoro-7,8-diazatricyclo[4.3.0.0^2,4]nona-1(6),8-dien-7-yl]acetamide], for which the CC50 at 4 days in series [1] was above 20 nM. Moreover, the half-maximal effective concentration (EC50) in series [2] is 0.009 nM.

The values are drawn from patent US12594276B2, “Inhibitors of human immunodeficiency virus replication” (ViiV Healthcare UK (No.5) Limited, priority 2024, dated 2026).
